Experimental data: PubChem BioAssay AID248 (DTP/NCI, 2004)
Toxic doses and inconclusive results are not listed. No stated cut-off is given here; in the data, active means T/C of 150% or more; inactive means T/C below 125%.

Tested on: L1210 leukemia ip in BDF1 mice, survival T/C
Test: NCI In Vivo Anticancer Drug Screen. Data for tumor model L1210 Leukemia (intraperitoneal) in B6D2F1 (BDF1) mice
Conditions: endpoint: mean survival time, higher = longer survival
In short: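 Ratio derived from survival: compound-dosed mice over vehicle-dosed mice, all bearing a transplantable tumor.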

[1] = dose: 50.0 mg/kg/injection, schedule: Q01DX001 (ip), vehicle: saline
[2] = dose: 100.0 mg/kg/injection, schedule: Q01DX001 (ip), vehicle: saline
[3] = dose: 200.0 mg/kg/injection, schedule: Q01DX001 (ip), vehicle: saline
[4] = dose: 75.0 mg/kg/injection, schedule: Q01DX001 (ip), vehicle: saline
[5] = dose: 150.0 mg/kg/injection, schedule: Q01DX001 (ip), vehicle: saline
[6] = dose: 100.0 mg/kg/injection, schedule: Q01DX009 (ip), vehicle: saline
[7] = dose: 100.0 mg/kg/injection, schedule: Q04DX003 (ip), vehicle: saline
[8] = dose: 200.0 mg/kg/injection, schedule: Q04DX003 (ip), vehicle: saline
[9] = dose: 400.0 mg/kg/injection, schedule: Q01DX001 (ip), vehicle: saline
[10] = dose: 100.0 mg/kg/injection, schedule: Q01DX009 (ip), vehicle: Klucel (hydroxypropylcellulose) (HPC)
[11] = dose: 100.0 mg/kg/injection, schedule: Q04DX003 (ip), vehicle: saline with Tween-80
[12] = dose: 100.0 mg/kg/injection, schedule: Q04DX003 (ip), vehicle: Klucel (hydroxypropylcellulose) (HPC)
[13] = dose: 200.0 mg/kg/injection, schedule: Q01DX009 (ip), vehicle: Klucel (hydroxypropylcellulose) (HPC)
[14] = dose: 200.0 mg/kg/injection, schedule: Q04DX003 (ip), vehicle: Klucel (hydroxypropylcellulose) (HPC)
[15] = dose: 400.0 mg/kg/injection, schedule: Q01DX009 (ip), vehicle: Klucel (hydroxypropylcellulose) (HPC)
[16] = dose: 400.0 mg/kg/injection, schedule: Q04DX003 (ip), vehicle: Klucel (hydroxypropylcellulose) (HPC)
[17] = dose: 100.0 mg/kg/injection, schedule: Q04DX002 (ip), vehicle: Klucel (hydroxypropylcellulose) (HPC)
[18] = dose: 200.0 mg/kg/injection, schedule: Q04DX002 (ip), vehicle: Klucel (hydroxypropylcellulose) (HPC)

Measured: T/C

COc1ccc(OC)c2c(=O)cc(C(=O)O)[nH]c12
inactive: [1] 98 % of control | [2] 97 % of control | [3] 95 % of control

CCOc1ccc2c(ccc(/C=C\c3ccc(O)c4ccccc34)[n+]2C)c1
inactive: dose: 15.0 mg/kg/injection, schedule: Q01DX001 (ip), vehicle: saline 96 % of control | dose: 30.0 mg/kg/injection, schedule: Q01DX001 (ip), vehicle: saline 96 % of control | dose: 60.0 mg/kg/injection, schedule: Q01DX001 (ip), vehicle: saline 97 % of control | [4] 106 % of control | [5] 101 % of control

CCCCn1cnc(=O)c2[nH]cnc21
inactive: dose: 3.12 mg/kg/injection, schedule: Q01DX009 (ip), vehicle: saline 90 % of control | dose: 6.25 mg/kg/injection, schedule: Q01DX009 (ip), vehicle: saline 94 % of control | dose: 12.5 mg/kg/injection, schedule: Q01DX009 (ip), vehicle: saline 95 % of control | dose: 25.0 mg/kg/injection, schedule: Q01DX001 (ip), vehicle: saline 98 % of control | dose: 25.0 mg/kg/injection, schedule: Q04DX003 (ip), vehicle: saline 96 % of control | [1] 96 % of control | dose: 50.0 mg/kg/injection, schedule: Q01DX009 (ip), vehicle: saline 97 % of control | dose: 50.0 mg/kg/injection, schedule: Q04DX003 (ip), vehicle: saline 105 % of control | [2] 100 % of control | [6] 87 % of control | [7] 107 % of control

CN(CC(=O)O)Cc1ccccc1
inactive: [6] 93 % of control | [7] 104 % of control | dose: 200.0 mg/kg/injection, schedule: Q01DX009 (ip), vehicle: saline 88 % of control | [8] 109 % of control | dose: 400.0 mg/kg/injection, schedule: Q01DX009 (ip), vehicle: saline 93 % of control | dose: 400.0 mg/kg/injection, schedule: Q04DX003 (ip), vehicle: saline 102 % of control

CN(CCSSCCN(C)C(N)=S)C(N)=S
inactive: dose: 75.0 mg/kg/injection, schedule: Q04DX003 (ip), vehicle: saline 96 % of control | dose: 150.0 mg/kg/injection, schedule: Q04DX003 (ip), vehicle: saline 87 % of control | dose: 300.0 mg/kg/injection, schedule: Q04DX003 (ip), vehicle: saline 96 % of control

O=C1C=C(NCCCCC2CCCCC2)c2ccccc2C1=O
inactive: [2] 95 % of control | [3] 97 % of control | [9] 91 % of control

Cc1cccc(C(=O)NO)c1O
inactive: [4] 101 % of control | [5] 98 % of control

ClCc1nc(-c2ccco2)no1
inactive: [10] 95 % of control

CC(=O)NC(C(O)CC(=O)C(=O)O)C(O)C(O)C(O)CO (stereo not drawn) (tested in a mixture with another compound)
inactive: [2] 102 % of control | [3] 100 % of control | [9] 102 % of control

C=C(Br)CNC(=O)NCC
inactive: dose: 25.0 mg/kg/injection, schedule: Q01DX009 (ip), vehicle: saline with Tween-80 94 % of control | dose: 50.0 mg/kg/injection, schedule: Q01DX009 (ip), vehicle: saline with Tween-80 91 % of control | dose: 100.0 mg/kg/injection, schedule: Q01DX009 (ip), vehicle: saline with Tween-80 105 % of control | [11] 97 % of control

CC12CCCCC1C1=C(CCCC1)CC2 (stereo not drawn)
inactive: dose: 50.0 mg/kg/injection, schedule: Q01DX001 (ip), vehicle: carboxymethylcellulose (CMC) 97 % of control | dose: 100.0 mg/kg/injection, schedule: Q01DX001 (ip), vehicle: carboxymethylcellulose (CMC) 92 % of control | dose: 200.0 mg/kg/injection, schedule: Q01DX001 (ip), vehicle: carboxymethylcellulose (CMC) 94 % of control | dose: 400.0 mg/kg/injection, schedule: Q01DX001 (ip), vehicle: carboxymethylcellulose (CMC) 97 % of control

O=C(Nc1ccc(F)cc1)Nc1cccc(C(=O)O)c1
inactive: [10] 96 % of control | [12] 96 % of control | [13] 107 % of control | [14] 100 % of control | [15] 95 % of control | [16] 105 % of control

CCCCOP(=S)(Cc1ccccc1)OCCCC
inactive: [10] 104 % of control | [13] 104 % of control | [15] 104 % of control

O=C(Nc1c(Oc2ccc(Cl)cc2)ccc(Cl)c1S(=O)(=O)O)Nc1c(Oc2ccc(Cl)cc2)ccc(Cl)c1S(=O)(=O)O
inactive: dose: 100.0 mg/kg/injection, schedule: Q01DX001 (ip), vehicle: acetone 95 % of control | [7] 95 % of control | [8] 96 % of control | dose: 400.0 mg/kg/injection, schedule: Q01DX001 (ip), vehicle: acetone 92 % of control

CC/C(=N\N=C(/CC)c1ccccc1)c1ccccc1
inactive: dose: 25.0 mg/kg/injection, schedule: Q01DX009 (ip), vehicle: Klucel (hydroxypropylcellulose) (HPC) 98 % of control | dose: 50.0 mg/kg/injection, schedule: Q01DX009 (ip), vehicle: Klucel (hydroxypropylcellulose) (HPC) 101 % of control | [10] 98 % of control | [17] 96 % of control | [18] 107 % of control | [15] 86 % of control | dose: 400.0 mg/kg/injection, schedule: Q04DX002 (ip), vehicle: Klucel (hydroxypropylcellulose) (HPC) 91 % of control

CCc1nc(N)nc(N)c1-c1ccc(Cl)cc1
inactive: dose: 22.0 mg/kg/injection, schedule: Q01DX Z (ip), vehicle: carboxymethylcellulose (CMC) 120 % of control | dose: 25.0 mg/kg/injection, schedule: Q01DX015 (ip), vehicle: carboxymethylcellulose (CMC) 110 % of control | dose: 35.0 mg/kg/injection, schedule: Q01DX Z (ip), vehicle: carboxymethylcellulose (CMC) 118 % of control | dose: 50.0 mg/kg/injection, schedule: Q01DX015 (ip), vehicle: carboxymethylcellulose (CMC) 116 % of control | dose: 75.0 mg/kg/injection, schedule: Q01DX Z (ip), vehicle: carboxymethylcellulose (CMC) 91 % of control | dose: 200.0 mg/kg/injection, schedule: Q01DX015 (ip), vehicle: carboxymethylcellulose (CMC) 104 % of control

O=C(Nc1ccc(F)cc1)c1ccccc1Cl
inactive: dose: 100.0 mg/kg/injection, schedule: Q01DX009 (ip), vehicle: acetone 98 % of control | dose: 200.0 mg/kg/injection, schedule: Q01DX009 (ip), vehicle: acetone 102 % of control | dose: 400.0 mg/kg/injection, schedule: Q01DX009 (ip), vehicle: acetone 102 % of control

CC(C)=NNC(=O)COCC(=O)NN=C(C)C
inactive: [10] 97 % of control | [13] 112 % of control | [15] 109 % of control

Cc1cccc(NC(=S)N2CCCCC2)c1
inactive: dose: 100.0 mg/kg/injection, schedule: Q04DX002 (ip), vehicle: saline with Tween-80 100 % of control | dose: 200.0 mg/kg/injection, schedule: Q04DX002 (ip), vehicle: saline with Tween-80 100 % of control | dose: 400.0 mg/kg/injection, schedule: Q04DX002 (ip), vehicle: saline with Tween-80 100 % of control

CCCC(=O)NC1Cc2cc(C)cc(C)c21 (stereo not drawn)
inactive: dose: 50.0 mg/kg/injection, schedule: Q04DX002 (ip), vehicle: Klucel (hydroxypropylcellulose) (HPC) 100 % of control | [17] 111 % of control | [18] 96 % of control

CCOC(=O)C(N)Cc1cc(I)c(O)c(I)c1 (stereo not drawn)
inactive: [11] 95 % of control | dose: 200.0 mg/kg/injection, schedule: Q04DX003 (ip), vehicle: saline with Tween-80 97 % of control | dose: 400.0 mg/kg/injection, schedule: Q04DX003 (ip), vehicle: saline with Tween-80 101 % of control

CCCCCCCC(O)CCCCC (stereo not drawn)
inactive: [10] 104 % of control | [12] 93 % of control | [13] 98 % of control | [14] 104 % of control | [15] 102 % of control | [16] 89 % of control

O=C(O)CCc1cnc2ccccc2n1
inactive: [10] 97 % of control | [12] 106 % of control | [13] 95 % of control | [14] 95 % of control | [15] 96 % of control | [16] 92 % of control

O=C(N/N=C/c1cc(Cl)ccc1O)c1cccc2ccccc12
inactive: [2] 94 % of control | [3] 92 % of control | [9] 86 % of control

OCCCC1CC2C=CC1C2 (stereo not drawn)
inactive: dose: 75.0 mg/kg/injection, schedule: Q01DX001 (ip), vehicle: other 102 % of control | dose: 150.0 mg/kg/injection, schedule: Q01DX001 (ip), vehicle: other 94 % of control
